“And” between values parts separate entries of the source, which are not always exact repeats. Equal values may be shown once. Read-outs that look alike come from different tables or passages of the source.
Assays:
human plasma [1] = assay: Ultracentrifugation (UC) plasma protein binding assay, fraction unbound in plasma (fup); settings: for fup: human plasma, 10 μM, ultracentrifugation, 37 °C; for Fup.Med: median fraction unbound in plasma; for Fup.Med / Fup.point: UC assay Level4; for Fup.point: point estimate of fraction unbound in plasma
human primary cells = settings: cited from earlier work
in vitro = settings: both, human, plasma
human plasma [2] = assay: Chemical stability in plasma over the UC assay time course (T5hr/T1hr); settings: for PPB_Stab_Fail: flag for stability failure in the plasma protein binding assay (1 = fail, 0 = pass); for Mean Stability (T5hr/T1hr): mean over all UC runs and replicates, human plasma; for Fstable.Med: median fraction stable in plasma, UC assay Level4; for Stability (T5hr/ T1hr), Run-specific Avg: run-specific average
[3] = system: pooled human cryopreserved primary hepatocyte suspensions; assay: Hepatic metabolic stability (hepatocyte clearance) assay, substrate depletion; type: in vitro ADME; settings: for Concentration (nM), Time 0 min / Concentration (nM), Time 15 min / Concentration (nM), Time 30 min / Concentration (nM), Time 60 min / Concentration (nM), Time 120 min: hepatocyte incubation, Rep 1-3, start conc 1000 nM; for Linear Regression Results, Best-Fit Values, Slope: hepatocyte time course
Text: (§1) William’s Medium E (Gibco A1217601), dexamethasone, and cell maintenance cocktail B (Gibco CM4000) were obtained from Thermo Fisher Scientific (Waltham, MA, USA). Hepatosure OptiThaw media (P/N K8000; Lot No. 18–1–0322) was obtained from Sekisui Xenotech (Kansas City, KS, USA). Trypan blue solution (P/N 1450021) was obtained from Bio-Rad (Hercules, CA, USA). Pooled human cryopreserved primary hepatocyte suspensions were obtained from BioIVT (Westbury, NY, USA) and produced using nontransplantable tissue. The human 50-donor pool (mixed gender; Cat X0080005; Lot MYC), selected from BioIVT’s commercially available, prepooled lots, was selected following review of vendor-generated metabolic characterization information. Pooled, mixed-sex human plasma from de-identified donors was obtained from a commercial vendor that operates a U.S. Food and Drug Administration-licensed and inspected donor center (BioIVT bioivt.com (accessed 12 May 2023). Donors comprised five males and five females and ranged from 20 to 50 years of age. Plasma collected using anticoagulant K2EDTA was sterile-filtered ([…]) and stored at <−70 °C until use.
(§2) The hepatic metabolic stability assay measures the loss of a parent compound over time in a substrate-depletion approach. Briefly, hepatocyte suspensions, after a viability assessment, were diluted in complete William’s medium E (containing dexamethasone and cell maintenance cocktail B) prior to addition to 96-well polypropylene plates containing an equal volume of media spiked with the test compound (1 μM assay concentration; assay cell density = 50,000 cells/100 μL) and maintained at 37 °C with shaking. At each time point, relevant plates were crashed with an equal volume of ice-cold acetonitrile, centrifuged, and supernatant transferred to a new plate prior to storage at <−70 °C until quantitative analysis. Controls, run in parallel, included cell-free (i.e., media only) and metabolically inactivated hepatocytes to evaluate abiotic chemical stability in the aqueous media matrix with and without cellular protein. In preliminary runs, these controls were run at T0 and T240 only. If significant instability was noted, the hepatocyte clearance assay was rerun, including cell-free samples at each time point and metabolically inactivated hepatocytes at selected time points.
(§3) To process samples for quantitative analysis, samples were thawed and mixed. An aliquot of sample was removed and diluted in acetonitrile (1 part sample plus 9 parts acetonitrile) containing the relevant ISs selected for the PFAS being analyzed (See Table S2). The target at instrument concentration of each IS was 10 pg/μL.
(§4) The curves were generated using concentration/response ratios from the target analyte and IS, with either linear or quadratic regression models. The model and weighting, if necessary, were chosen to most accurately reflect the response of each compound and was evaluated by recalculating the individual calibration points using the curve. An acceptable model reflected an accuracy of ±30% of the theoretical value.
(§5) Hepatic metabolic clearance data were plotted in semi-log format (ln concentration vs. time) with three replicates at each time point, as previously described. […] The equations described below are used to calculate the chemical half-life (T½) and intrinsic in vitro clearance (Clin vitro) with units of μL/(min × million hepatocytes). In Equation (3), 2000 is a scalar used to adjust the assay cell number up to be consistent with units of 1 million cells in the Clint equation.
(§6) Negative controls, including media only and metabolically inactivated hepatocyte controls, were included to monitor abiotic loss (i.e., background clearance) during the assay. Where significant compound loss occurred using the analysis described above, background clearance rates were calculated and used to background-adjust hepatic metabolic clearance rates. […]

[4] = as above; type: in vitro ADME, human; settings: both sexes, human; for half-life at 1 μM: read-out: Linear Regression Results, Best-Fit Values, Half Life
Text: as §1, §2, §3, §4, §5, §6

[5] = In vitro-in vivo extrapolation (IVIVE) to Css and administered equivalent dose (AED); design: species or system human; settings: for Clhep: IVIVE, hepatocyte Clint scaled to whole-liver clearance; for AED: administered equivalent dose from LOEC and Css; for Fub: fub=fup/(B:P), Fub set to 1 if needed; for CLint: scaled with HPGL 110 mill cells/g, Vl 1596 g
Description: Using the experimentally generated PPB (fraction unbound in plasma, fup) and hepatic Clint data, IVIVE was performed as previously described to calculate human steady-state plasma concentrations (Css). Briefly, experimental measures of fup are adjusted using blood:plasma partitioning information to estimate the fraction unbound in blood (fub). Experimental hepatocyte Clint data are scaled up to represent whole-liver clearance (L/h). […] Once estimated, these Css values are considered in conjunction with published in vitro bioactivity concentrations (i.e., lowest-observed effective concentrations, or LOECs) to calculate AEDs (Table 2). See Table S10 for all relevant IVIVE inputs, scalars, calculations, and outputs.

[6] = Abiotic loss in negative controls of the hepatocyte clearance assay (cell-free media, metabolically inactivated hepatocytes); type: in vitro ADME; settings: for half-life at 1 μM / HT BkgdCl, Slope / No Cells BkgdCl, Slope: 0 vs 240 min; for Hep_Stab_Fail: flag for stability failure in hepatocyte clearance assay controls (1 or Fst = fail, 0 = pass)
How it was run: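 Test compound at 1 μM incubated at 37 °C with shaking in complete William's medium E, either cell-free or with metabolically inactivated hepatocytes, then quenched with ice-cold acetonitrile for quantitative analysis.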

[7] = BioSeek lowest-observed effect concentration used for AED
[8] = minimum lowest-observed effect concentration, BioSeek platform
[9] = Fraction Unbound (fu), Run-specific Avg, run-specific average
[10] = Fraction Unbound (fu), replicate A, individual replicate A of the UC run dated in c8
[11] = Fraction Unbound (fu), replicate B, individual replicate B of the UC run dated in c8
[12] = Fraction Unbound (fu), replicate C, individual replicate C of the UC run dated in c8
[13] = Mean fu, fraction unbound in human plasma, ultracentrifugation, some values based on eLOQ
[14] = hepatocytes, background-subtracted, read-out: Bkgd-Sub Clearance (µL/min/106 hepatocytes)
[15] = hepatocytes, pooled human hepatocyte suspensions, 1 μM, read-out: In Vitro Clint
[16] = hepatocytes, unadjusted hepatocyte intrinsic clearance, read-out: Unadj in vitro Clint
[17] = hepatocytes, hepatocyte time course, NS = slope not significant, read-out: Linear Regression Results, Best-Fit Values, Clearance
[18] = hepatocytes, hepatocyte time course, NS = slope not significant
[19] = Assuming 1 mg/kg/day dose rate, BW 70 kg
[20] = human steady-state plasma concentration, assuming 1 mg/kg/day dosage
[21] = both sexes, human, heat treated hepatocytes control, read-out: HT BkgdCl, Half Life
[22] = buffer, no cells control, read-out: No Cells BkgdCl, Half Life
[23] = heat treated hepatocytes control
[24] = heat treated hepatocytes, Rep 1-3

NC(=O)C(F)(F)C(F)(F)C(F)(F)C(F)(F)F [Nonafluoropentanamide]
fup (human plasma [1]): 0.1985 | Fup.Med (human plasma [1]): 0.192 | Fup.point (human plasma [1]): 0.199 | LOEC (human primary cells; [7]): 7.00 µM | LOEC (human primary cells; [8]): 7 µM | fraction unbound (in vitro; [9]): 0.2 | fraction unbound (in vitro; [10]): 0.228 | fraction unbound (in vitro; [11]): 0.178 | fraction unbound (in vitro; [12]): 0.191 | fraction unbound (in vitro; [13]): 0.199 | PPB_Stab_Fail (human plasma [2]): 0 | Mean Stability (T5hr/T1hr) (human plasma [2]): 0.975 | Fstable.Med (human plasma [2]): 0.999 | Stability (T5hr/ T1hr), Run-specific Avg (human plasma [2]): 0.945 | Concentration (nM), Time 0 min [3]: 390.162 nM and 651.917 nM and 499.488 nM | Concentration (nM), Time 15 min [3]: 214.882 nM and 126.475 nM and 193.144 nM | Concentration (nM), Time 30 min [3]: 192.232 nM and 153.873 nM and 192.317 nM | Concentration (nM), Time 60 min [3]: 74.6949 nM and 76.5031 nM and 55.8443 nM | Concentration (nM), Time 120 min [3]: 22.6965 nM and 21.4336 nM and 13.3509 nM | Linear Regression Results, Best-Fit Values, Slope [3]: -0.01747 | hepatocyte CLint at 1 μM [4, 14]: 26 µL/min/1e6 cells | hepatocyte CLint at 1 μM ([4]; hepatocytes, hepatocyte clearance, Conc 1000 nM, not background adjusted, read-out: Unadj Clint): 34.9 µL/min/1e6 cells | hepatocyte CLint at 1 μM [4, 15]: 26 µL/min/1e6 cells | hepatocyte CLint at 1 μM [4, 16]: 34.9 µL/min/1e6 cells | hepatocyte CLint at 1 μM [4, 17]: 34.9 µL/min/1e6 cells | half-life at 1 μM [4, 18]: 0.661 h | hepatocyte CLint at 1 μM ([4]; s9, Bayesian analysis median, 1 μM assay concentration (Table S9), read-out: Clint.1.Med): 88.7 µL/min/1e6 cells | Css [5, 19]: 0.06 mg/L and 0.23 uM | Clhep [5]: 47.130 L/h | AED [5]: 31.0338 mg/kg/day | Fub [5]: 0.3609 | Css [5, 20]: 0.23 µM | CLint [5]: 4569125 µL/min | half-life at 1 μM [6, 21]: 1.58 h | half-life at 1 μM [6, 22]: 2.59 h | Hep_Stab_Fail [6]: 0 | HT BkgdCl, Slope [6, 23]: -0.007311 | No Cells BkgdCl, Slope ([6]; no cells control): -0.004457 | Negative Controls, No cells (NC), concentration at 0 min ([6]; Rep 1-3): 364.995 nM and 386.302 nM and 296.545 nM | Negative Controls, No cells (NC), concentration at 240 min ([6]; Rep 1-3): 132.756 nM and 122.614 nM and 103.779 nM

NC(=O)C(F)(F)C(F)(F)C(F)(F)C(F)(F)C(N)=O [Octafluoroadipamide]
fup (human plasma [1]): 0.8201 | Fup.Med (human plasma [1]): 0.864 | Fup.point (human plasma [1]): 0.834 | LOEC (human primary cells; [7]): 2.00 µM | LOEC (human primary cells; [8]): 2 µM | fraction unbound (in vitro; [9]): 0.67 | fraction unbound (in vitro; [10]): 0.704 | fraction unbound (in vitro; [11]): 0.633 | fraction unbound (in vitro; [12]): 0.732 | fraction unbound (in vitro; Mean Fu (fraction unbound), mean over all UC runs and replicates, human plasma): 0.82 | fraction unbound (in vitro; [13]): 0.82 | PPB_Stab_Fail (human plasma [2]): 0 | Mean Stability (T5hr/T1hr) (human plasma [2]): 0.977 | Fstable.Med (human plasma [2]): 0.546 | Stability (T5hr/ T1hr), Run-specific Avg (human plasma [2]): 0.982 | Concentration (nM), Time 0 min [3]: 263.339 nM and 217.701 nM and 209.817 nM | Concentration (nM), Time 15 min [3]: 291.912 nM and 225.036 nM and 414.445 nM | Concentration (nM), Time 30 min [3]: 391.931 nM and 314.083 nM and 336.529 nM | Concentration (nM), Time 60 min [3]: 437.175 nM and 457.948 nM and 302.199 nM | Concentration (nM), Time 120 min [3]: 293.394 nM and 338.799 nM and 278.045 nM | Linear Regression Results, Best-Fit Values, Slope [3]: -0.002646 | hepatocyte CLint at 1 μM [4, 14]: 2.95 µL/min/1e6 cells | hepatocyte CLint at 1 μM [4, 15]: 2.95 µL/min/1e6 cells | hepatocyte CLint at 1 μM [4, 16]: 5.29 µL/min/1e6 cells | hepatocyte CLint at 1 μM [4, 17]: 5.29 µL/min/1e6 cells | half-life at 1 μM [4, 18]: 4.37 h | Css [5, 19]: 0.10 mg/L and 0.34 uM | Clhep [5]: 23.099 L/h | AED [5]: 5.8401 mg/kg/day | Fub [5]: 1 | Css [5, 20]: 0.34 µM | CLint [5]: 517902 µL/min | half-life at 1 μM [6, 21]: 7.63 h | half-life at 1 μM [6, 22]: 9.88 h | Hep_Stab_Fail [6]: 0 | HT BkgdCl, Slope [6, 23]: -0.001514 | Negative Controls, Heat Treated (HT), concentration at 0 min [6, 24]: 209.171 nM and 207.599 nM and 206.567 nM | Negative Controls, Heat Treated (HT), concentration at 240 min [6, 24]: 153.885 nM and 136.838 nM and 143.186 nM | No Cells BkgdCl, Slope ([6]; no cells control): -0.00117 | Negative Controls, No cells (NC), concentration at 0 min ([6]; Rep 1-3): 214.709 nM and 240.687 nM and 228.618 nM | Negative Controls, No cells (NC), concentration at 240 min ([6]; Rep 1-3): 175.164 nM and 151.709 nM and 191.604 nM

Source: paper PMC10223284, “Category-Based Toxicokinetic Evaluations of Data-Poor Per- and Polyfluoroalkyl Substances (PFAS) using Gas Chromatography Coupled with Mass Spectrometry” (Toxics, 2023)
